Patent US20160296529A1, “AMINOTRIAZOLOPYRIDINE FOR USE IN THE TREATMENT OF INFLAMMATION, AND PHARMACEUTICAL COMPOSITIONS THEREOF” (priority 2012, published 2016)

System: rat CIA model
Assay: CIA model 2 (rat collagen induced arthritis, ankle diameter)
Assay type: in vivo, Female Lewis rats
Description: Female Lewis rats (n=76) that weighed 165-194 grams (mean approx. 178 g) on arthritis day 0 were obtained from Charles River Laboratories, Inc., Wilmington, Mass., (ref#393739). Animals were identified by a distinct number at the base of the tail delineating group and animal number.
Upon arrival, animals were housed 4/cage in shoe-box polycarbonate cages and acclimated for 8 days prior to being immunized with type II collagen. No concurrent medications were given.
During the acclimation and study periods, animals were housed in a laboratory environment with temperatures ranging 19-25° […]. and relative humidity of 30%-70%. Automatic timers provided 12 h of light and 12 h of dark. Animals were allowed access ad libitum to food and water.
Acclimated female Lewis rats were anesthetized with Isoflurane and receive subcutaneous/intradermal (SC/ID) injections with 300 μL of Freund's Incomplete Adjuvant (Difco, Detroit, Mich.) containing 2 mg/mL bovine type II collagen (Elastin Products, Owensville, Mo.) at the base of the tail and 2 sites on the back on day −9 and on day −3.
Collagen was prepared by making a 4 mg/mL solution in 0.01N Acetic acid. Equal volumes of collagen and Freund's incomplete adjuvant, were emulsified by hand mixing until a bead of this material holds its form when placed in water. Each animal received 300 μL of the mixture on each occasion divided over 3 subcutaneous sites on back.
On study day 1, onset of arthritis occurred and animals were randomized into treatment groups. After randomization, all cages were labelled with protocol number, group number, and animal numbers. Randomization into each group was done after ankle joint swelling was obviously established and there was good evidence of bilateral disease.
Animals with established type II collagen arthritis were treated daily (QD) by the oral (PO) route for 13 days with vehicle (methylcellulose 0.5% (w/v)), or with active compound(s) prepared in methylcellulose, 0.5% (w/v). Oral dosing was initiated on arthritis day 1 and continued daily (QD at 24 h intervals) through day 13. Animals were terminated on arthritis day 14.
The severity of the arthritis was evaluated by measuring the diameter of both ankles on the animals. Caliper measurements of ankles were taken every day beginning on day 0, with a Digitrix II micrometer (Fowler & NSK). Baseline measurements were taken using one ankle with values rounded to one-thousandth of an inch. Measurements were confirmed as clinically normal (0.260-0.264 in) by comparison with historical values for rats based on a range of body weights. Baseline measurements were then applied to both ankles, and these values remain with the animal so long as the ankle was clinically normal with good definition of all the ankle bones and no evidence of inflammation. Animals were terminated on day 14.

O=C(Nc1nc2cccc(-c3ccc(CN4CCS(=O)(=O)CC4)cc3)n2n1)C1CC1 [Formula II, Cyclopropanecarboxylic acid {5-[4-(1,1-dioxo-thiomorpholin-4-ylmethyl)-phenyl]-[1,2,4]triazolo[1,5-a]pyridin-2-yl}-amide]
ankle diameter (group C: Formula II 1 mg/kg PO QD, day 0): 0.2625 inches | ankle diameter (group C: Formula II 1 mg/kg PO QD, day 1): 0.2716 inches | ankle diameter (group C: Formula II 1 mg/kg PO QD, day 2): 0.2755 inches | ankle diameter (group C: Formula II 1 mg/kg PO QD, day 3): 0.2869 inches | ankle diameter (group C: Formula II 1 mg/kg PO QD, day 4): 0.2990 inches | ankle diameter (group C: Formula II 1 mg/kg PO QD, day 5): 0.3106 inches | ankle diameter (group C: Formula II 1 mg/kg PO QD, day 6): 0.3231 inches | ankle diameter (group C: Formula II 1 mg/kg PO QD, day 7): 0.3296 inches | ankle diameter (group C: Formula II 1 mg/kg PO QD, day 8): 0.3291 inches | ankle diameter (group C: Formula II 1 mg/kg PO QD, day 9): 0.3268 inches | ankle diameter (group C: Formula II 1 mg/kg PO QD, day 10): 0.3270 inches | ankle diameter (group C: Formula II 1 mg/kg PO QD, day 11): 0.3185 inches | ankle diameter (group C: Formula II 1 mg/kg PO QD, day 12): 0.3178 inches | ankle diameter (group C: Formula II 1 mg/kg PO QD, day 13): 0.3185 inches | ankle diameter (group C: Formula II 1 mg/kg PO QD, day 14): 0.3226 inches | ankle diameter (group D: Formula II 3 mg/kg PO QD, day 0): 0.2623 inches | ankle diameter (group D: Formula II 3 mg/kg PO QD, day 1): 0.2718 inches | ankle diameter (group D: Formula II 3 mg/kg PO QD, day 2): 0.2755 inches | ankle diameter (group D: Formula II 3 mg/kg PO QD, day 3): 0.2869 inches | ankle diameter (group D: Formula II 3 mg/kg PO QD, day 4): 0.2957 inches | ankle diameter (group D: Formula II 3 mg/kg PO QD, day 5): 0.3058 inches | ankle diameter (group D: Formula II 3 mg/kg PO QD, day 6): 0.3168 inches | ankle diameter (group D: Formula II 3 mg/kg PO QD, day 7): 0.3205 inches | ankle diameter (group D: Formula II 3 mg/kg PO QD, day 8): 0.3259 inches | ankle diameter (group D: Formula II 3 mg/kg PO QD, day 9): 0.3216 inches | ankle diameter (group D: Formula II 3 mg/kg PO QD, day 10): 0.3197 inches | ankle diameter (group D: Formula II 3 mg/kg PO QD, day 11): 0.3156 inches | ankle diameter (group D: Formula II 3 mg/kg PO QD, day 12): 0.3165 inches | ankle diameter (group D: Formula II 3 mg/kg PO QD, day 13): 0.3175 inches | ankle diameter (group D: Formula II 3 mg/kg PO QD, day 14): 0.3174 inches | significance to vehicle control (ANOVA) in the CIA second model (group E: Formula II 10 mg/kg PO QD): mg/kg (*) (((*) = p ≦ 0.05 ANOVA to vehicle control)) | ankle diameter (group E: Formula II 10 mg/kg PO QD, day 0): 0.2626 inches | ankle diameter (group E: Formula II 10 mg/kg PO QD, day 1): 0.2718 inches | ankle diameter (group E: Formula II 10 mg/kg PO QD, day 2): 0.2744 inches | ankle diameter (group E: Formula II 10 mg/kg PO QD, day 3): 0.2808 inches | ankle diameter (group E: Formula II 10 mg/kg PO QD, day 4): 0.2850 inches | ankle diameter (group E: Formula II 10 mg/kg PO QD, day 5): 0.2921 inches | ankle diameter (group E: Formula II 10 mg/kg PO QD, day 6): 0.3000 inches | ankle diameter (group E: Formula II 10 mg/kg PO QD, day 7): 0.3031 inches | ankle diameter (group E: Formula II 10 mg/kg PO QD, day 8): 0.3108 inches | ankle diameter (group E: Formula II 10 mg/kg PO QD, day 9): 0.3119 inches | ankle diameter (group E: Formula II 10 mg/kg PO QD, day 10): 0.3122 inches | ankle diameter (group E: Formula II 10 mg/kg PO QD, day 11): 0.3090 inches | ankle diameter (group E: Formula II 10 mg/kg PO QD, day 12): 0.3070 inches | ankle diameter (group E: Formula II 10 mg/kg PO QD, day 13): 0.3069 inches | ankle diameter (group E: Formula II 10 mg/kg PO QD, day 14): 0.3066 inches | significance to vehicle control (ANOVA) in the CIA second model (group F: Formula II 30 mg/kg PO QD): mg/kg (*) (((*) = p ≦ 0.05 ANOVA to vehicle control)) | ankle diameter (group F: Formula II 30 mg/kg PO QD, day 0): 0.2620 inches | ankle diameter (group F: Formula II 30 mg/kg PO QD, day 1): 0.2718 inches | ankle diameter (group F: Formula II 30 mg/kg PO QD, day 2): 0.2679 inches | ankle diameter (group F: Formula II 30 mg/kg PO QD, day 3): 0.2683 inches | ankle diameter (group F: Formula II 30 mg/kg PO QD, day 4): 0.2708 inches | ankle diameter (group F: Formula II 30 mg/kg PO QD, day 5): 0.2698 inches | ankle diameter (group F: Formula II 30 mg/kg PO QD, day 6): 0.2696 inches | ankle diameter (group F: Formula II 30 mg/kg PO QD, day 7): 0.2706 inches | ankle diameter (group F: Formula II 30 mg/kg PO QD, day 8): 0.2741 inches | ankle diameter (group F: Formula II 30 mg/kg PO QD, day 9): 0.2721 inches | ankle diameter (group F: Formula II 30 mg/kg PO QD, day 10): 0.2706 inches | ankle diameter (group F: Formula II 30 mg/kg PO QD, day 11): 0.2711 inches | ankle diameter (group F: Formula II 30 mg/kg PO QD, day 12): 0.2685 inches | ankle diameter (group F: Formula II 30 mg/kg PO QD, day 13): 0.2684 inches | ankle diameter (group F: Formula II 30 mg/kg PO QD, day 14): 0.2679 inches
